# Data as given in patent publication US11268145B2, “Methods for treating Cushing's syndrome” (priority 2015, dated 2022).
# Tested on: FKBP5 gene expression
# Assay: FKBP5 gene expression in whole blood of healthy subjects after GR agonist, with or without GRA
# Type: in vivo, human
# Settings: GAPDH normalized
# Protocol: FIG. 1: depicts a study scheme for examining the expression level of the gene FKBP5, which encodes the FKBP5 protein, in response to administration of a GR modulator. In this scheme, healthy subjects are administered a GR agonist, followed by co-administration of a GR agonist and a GR antagonist (GRA). Blood samples are obtained from 10 subjects before each dose and at various time points after each dose. FKBP5 expression levels are measured before dosing on each day, and at selected times after dosing on each day.
# Blood samples are taken before each dose and at various time-points after each dose. The study scheme is depicted in FIG. 1. The expression level of the FKBP5 gene is measured in the pre-administration samples obtained before dosing on each day and in the post-administration samples obtained at various time points after dosing on each day. Raw expression level data in the samples are normalized against the expression level of the glyceraldehyde phosphate dehydrogenase (GAPDH) gene in each sample.
SMILES,change in the fold change in FKBP5 expression (prednisone 25 mg with CORT125134 500 mg),change in the fold change in FKBP5 expression (prednisone 25 mg with mifepristone 600 mg)
Cn1cc(S(=O)(=O)N2CCC3=Cc4c(cnn4-c4ccc(F)cc4)C[C@]3(C(=O)c3cc(C(F)(F)F)ccn3)C2)cn1 [CORT125134],significant decrease,–
CC#C[C@]1(O)CC[C@H]2[C@@H]3CCC4=CC(=O)CCC4=C3[C@@H](c3ccc(N(C)C)cc3)C[C@@]21C [mifepristone],–,significant decrease
